Measured values: patent US11541132B2, “Radiolabeled compounds” (Hoffmann-La Roche Inc., priority 2017, dated 2023)

Key:
[1] = target: T1, native Aβ aggregates in human AD brain tissue sections (Homo sapiens, UniProt P05067); experiment: Aβ in vitro displacement assay (selectivity counterscreen, [3H]Example 3 autoradiography); assay type: binding; conditions: 3 nM [3H]Example 3, human AD brain sections; for inhibition at 1 µM: 1 μM compound, read-out: sel. counterscreen PCT_INHIB AD @ 1 μM (% displacement of [3H]Example 3)
T1 construct: native Aβ aggregates in human AD brain tissue samples; from tissue; host or cells: human AD brain tissue sections

[2] = target: T2, native aSyn aggregates in A30P transgenic mouse brain sections (Homo sapiens, UniProt P37840, A30P); experiment: aSyn in vitro displacement assay ([3H]Example-3 autoradiography); assay type: binding, mutant human aSyn gene); conditions: 3 nM [3H]Example-3, A30P transgenic mouse brain sections; for inhibition at 1 µM: 1 μM compound, read-out: PCT_INHIB A30P @ 1 μM (% displacement of [3H]Example-3)
T2 construct: from tissue; host or cells: brain sections (midbrain and pons as ROI) of A30P transgenic mice, line B6.D2-Tg(Thy1-SNCA*30P)31Pjk

T1 sequence (P05067 672-713 limits assumed): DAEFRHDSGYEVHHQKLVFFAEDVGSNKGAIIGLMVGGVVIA

Compound | inhibition at 1 µM [1] [%] | inhibition at 1 µM [2] [%] | inhibition at 3 µM ([1]; 3 μM compound, read-out: sel. counterscreen PCT_INHIB AD @ 3 μM) [%] | inhibition at 3 µM ([2]; 3 μM compound, read-out: PCT_INHIB A30P @ 3 μM) [%]
COc1ccc(C(=O)Nc2ccc(N3CCN(c4ccccn4)CC3)cc2)c(F)c1 [Example 1, 2-Fluoro-4-methoxy-N-(4-(4-(pyridin-2-yl)piperazin-1-yl)phenyl)benzamide] | 95 | 100 | – | –
O=C(Nc1ccc(N2CCN(c3ccccn3)CC2)cc1)c1ccc(O)cc1 [Example 2, 4-hydroxy-N-(4-(4-(pyridin-2-yl)piperazin-1-yl)phenyl)benzamide] | 93 | 85 | – | –
COc1ccc(C(=O)Nc2ccc(N3CCN(c4ccccn4)CC3)cc2)cc1 [Example 3, 4-Methoxy-N-[4-(4-pyridin-2-ylpiperazin-1-yl)phenyl]benzamide] | – | – | 100 | 100
COc1ccc(C(=O)Nc2ccc(N3CCN(c4ccc(C)cn4)CC3)cc2)cn1 [Example 4, 6-Methoxy-N-[4-[4-(5-methyl-2-pyridyl)piperazin-1-yl]phenyl]pyridine-3-carboxamide] | 91 | 89 | – | –
Cc1ccc(C(=O)Nc2ccc(N3CCN(c4ccccn4)CC3)cc2)cc1 [Example 5, 4-Methyl-N-(4-(4-(pyridin-2-yl)piperazin-1-yl)phenyl)benzamide] | 102 | 99 | – | –
CN1CCN(c2ccc(C(=O)Nc3ccc(N4CCN(c5ccccn5)CC4)cc3)cc2)CC1 [Example 6, 4-(4-Methylpiperazin-1-yl)-N-(4-(4-(pyridin-2-yl)piperazin-1-yl)phenyl)benzamide] | 95 | 83 | – | –
CN(C)c1ccc(C(=O)Nc2ccc(N3CCN(c4ccccn4)CC3)cc2)cc1 [Example 7, 4-(Dimethylamino)-N-(4-(4-(pyridin-2-yl)piperazin-1-yl)phenyl)benzamide] | 108 | 90 | – | –
O=C(Nc1ccc(N2CCN(c3ccccn3)CC2)cc1)c1ccc(N2CCOCC2)cc1 [Example 8, 4-Morpholino-N-(4-(4-(pyridin-2-yl)piperazin-1-yl)phenyl)benzamide] | 86 | 93 | – | –
O=C(Nc1ccc(N2CCN(c3ccccn3)CC2)cc1)c1ccccc1F [Example 9, 2-Fluoro-N-(4-(4-(pyridin-2-yl)piperazin-1-yl)phenyl)benzamide] | 96 | 82 | – | –
Cc1ccc(C(=O)Nc2ccc(N3CCN(c4ccccn4)CC3)cc2)c(F)c1 [Example 10, 2-Fluoro-4-methyl-N-(4-(4-(pyridin-2-yl)piperazin-1-yl)phenyl)benzamide] | 81 | 83 | – | –
COc1ccc(C(=O)Nc2ccc(N3CCN(c4ccccn4)CC3)cc2)c(C)c1 [Example 11, 4-Methoxy-2-methyl-N-(4-(4-(pyridin-2-yl)piperazin-1-yl)phenyl)benzamide] | 86 | 87 | – | –
O=C(Nc1ccc(N2CCN(c3ccccn3)CC2)cc1)c1ccc(OCCOCCF)cc1 [Example 12, 4-(2-(2-fluoroethoxy)ethoxy)-N-(4-(4-(pyridin-2-yl)piperazin-1-yl)phenyl) benzamide] | 99 | 99 | – | –
COc1ccc(C(=O)Nc2ccc(N3CCN(c4nccs4)CC3)cc2)cc1 [Example 13, 4-Methoxy-N-[4-[4-(1,3-thiazol-2-yl)piperazin-1-yl]phenyl]benzamide] | 103 | 90 | – | –
O=C(Nc1ccc(N2CCN(c3ccccn3)CC2)cc1)c1ccc2c(c1)OCCO2 [Example 14, N-(4-(4-(Pyridin-2-yl)piperazin-1-yl)phenyl)-2,3-dihydrobenzo[b][1,4]dioxine-6-carboxamide] | 96 | 91 | – | –

Further lines, results first:

inhibition at 1 µM [1] [%] | inhibition at 1 µM [2] [%] | inhibition at 3 µM ([1]; 3 μM compound, read-out: sel. counterscreen PCT_INHIB AD @ 3 μM) [%] | inhibition at 3 µM ([2]; 3 μM compound, read-out: PCT_INHIB A30P @ 3 μM) [%] | Compound
87 | 81 | – | – | O=C(Nc1ccc(N2CCN(c3nccs3)CC2)cc1)c1ccc(OCC(O)CF)cc1 (racemic) [Example 130, rac-4-(3-Fluoro-2-hydroxypropoxy)-N-(4-(4-(thiazol-2-yl)piperazin-1-yl)phenyl)benzamide]
90 | 88 | – | – | N#Cc1ccc(N2CCN(c3ccc(NC(=O)c4ccc(OCC(O)CF)cc4)cc3)CC2)cc1 (racemic) [Example 131, rac-N-(4-(4-(4-Cyanophenyl)piperazin-1-yl)phenyl)-4-(3-fluoro-2-hydroxypropoxy)benzamide]
98 | 94 | – | – | O=C(Nc1ccc(N2CCN(c3ccccn3)CC2)cc1)c1ccc2c(c1)OCO2 [Example 15, N-(4-(4-(Pyridin-2-yl)piperazin-1-yl)phenyl)benzo[d][1,3]dioxole-5-carboxamide]
97 | 87 | – | – | O=C(Nc1ccc(N2CCN(c3ccccn3)CC2)cc1)c1ccn2ccnc2c1 [Example 16, N-(4-(4-(Pyridin-2-yl)piperazin-1-yl)phenyl)imidazo[1,2-a]pyridine-7-carboxamide]
98 | 87 | – | – | O=C(Nc1ccc(N2CCN(c3ccccn3)CC2)cc1)c1ccc2nccn2c1 [Example 17, N-(4-(4-(Pyridin-2-yl)piperazin-1-yl)phenyl)imidazo[1,2-a]pyridine-6-carboxamide]
99 | 95 | – | – | COc1ccc(C(=O)Nc2ccc(N3CCN(c4nccs4)CC3)cc2)c(F)c1 [Example 18, 2-Fluoro-4-methoxy-N-[4-[4-(1,3-thiazol-2-yl)piperazin-1-yl]phenyl]benzamide]
103 | 90 | – | – | CN(C)c1ccc(C(=O)Nc2ccc(N3CCN(c4nccs4)CC3)cc2)cc1 [Example 20, 4-(Dimethylamino)-N-[4-[4-(1,3-thiazol-2-yl)piperazin-1-yl]phenyl]benzamide]
91 | 85 | – | – | Cc1ccc(C(=O)Nc2ccc(N3CCN(c4nccs4)CC3)cc2)c(F)c1 [Example 21, 2-Fluoro-4-methyl-N-[4-[4-(1,3-thiazol-2-yl)piperazin-1-yl]phenyl]benzamide]
83 | 81 | – | – | COc1ccc(C(=O)Nc2ccc(N3CCN(c4ccccn4)CC3)cc2C)c(F)c1 [Example 29, 2-Fluoro-4-methoxy-N-(2-methyl-4-(4-(pyridin-2-yl)piperazin-1-yl)phenyl)benzamide]
96 | 91 | – | – | Cc1cccc(N2CCN(c3ccc(NC(=O)c4ccc(N(C)C)cc4)cc3)CC2)n1 [Example 30, 4-(Dimethylamino)-N-(4-(4-(6-methylpyridin-2-yl)piperazin-1-yl)phenyl)benzamide]
98 | 90 | – | – | CN(C)c1ccc(C(=O)Nc2ccc(N3CCN(c4ccccn4)CC3)nc2)cc1 [Example 31, 4-(Dimethylamino)-N-[6-[4-(2-pyridyl)piperazin-1-yl]-3-pyridyl]benzamide]
88 | 87 | – | – | O=C(Nc1ccc(N2CCN(c3ccccn3)CC2)nc1)c1ccc(N2CCOCC2)cc1 [Example 32, 4-Morpholino-N-[6-[4-(2-pyridyl)piperazin-1-yl]-3-pyridyl]benzamide]
90 | 85 | – | – | Cc1ccc(C(=O)Nc2ccc(N3CCN(c4ccccn4)CC3)nc2)nc1 [Example 33, 5-Methyl-N-[6-[4-(2-pyridyl)piperazin-1-yl]-3-pyridyl]pyridine-2-carboxamide]
99 | 84 | – | – | COc1ccc(C(=O)Nc2ccc(N3CCN(c4ccccn4)CC3)nc2)c(F)c1 [Example 34, 2-Fluoro-4-methoxy-N-[6-[4-(2-pyridyl)piperazin-1-yl]-3-pyridyl]benzamide]
91 | 86 | – | – | CN(C)c1ccc(C(=O)Nc2ccc(N3CCN(c4ccccn4)CC3)nn2)cc1 [Example 36, 4-(Dimethylamino)-N-[6-[4-(2-pyridyl)piperazin-1-yl]pyridazin-3-yl]benzamide]
97 | 94 | – | – | Cc1ccc(C(=O)Nc2ccc(N3CCN(c4cccnc4)CC3)cc2)cc1 [Example 37, 4-Methyl-N-(4-(4-(pyridin-3-yl)piperazin-1-yl)phenyl)benzamide]
93 | 96 | – | – | COc1ccc(C(=O)Nc2ccc(N3CCN(c4cccnc4)CC3)cc2)cc1 [Example 38, 4-Methoxy-N-(4-(4-(pyridin-3-yl)piperazin-1-yl)phenyl)benzamide]
69 | 87 | – | – | O=C(Nc1ccc(N2CCN(c3cccnc3)CC2)cc1)c1ccc(N2CCOCC2)cc1 [Example 39, 4-Morpholino-N-(4-(4-(pyridin-3-yl)piperazin-1-yl)phenyl)benzamide]
92 | 86 | – | – | COc1ccc(C(=O)Nc2ccc(N3CCN(c4ccccn4)CC3)nn2)c(F)c1 [Example 40, 2-Fluoro-4-methoxy-N-[6-[4-(2-pyridyl)piperazin-1-yl]pyridazin-3-yl]benzamide]
90 | 84 | – | – | COc1ccc(C(=O)Nc2ccc(N3CCN(c4ccncc4)CC3)cc2)cc1 [Example 41, 4-Methoxy-N-[4-[4-(4-pyridyl)piperazin-1-yl]phenyl]benzamide]
94 | 91 | – | – | CN1CCOc2cc(C(=O)Nc3ccc(N4CCN(c5ccccn5)CC4)cc3)ccc21 [Example 42, 4-Methyl-N-(4-(4-(pyridin-2-yl)piperazin-1-yl)phenyl)-3,4-dihydro-2H-benzo[b][1,4]oxazine-7-carboxamide]
